The values that follow are results of earlier work, collected in US9707278B2, “Methods of modulating immune responses by modifying Akt3 bioactivity” (Augusta University Research Institute, Inc., priority 2014, dated 2017).

Structures are written as SMILES.

As a reminder, the IC50 is the concentration that gives 50% inhibition.

For data set [1] the following is noted: patients with advanced solid tumors.
The conditions of data set [2]: patients with advanced solid tumors. This is another data set of the same source.
The conditions of data set [3]: human, in vivo.
The target in the next data set is PKA (Homo sapiens, UniProt P17612).
A further data set addresses p70S6K (Homo sapiens, UniProt P23443).
The subject of data set [4] is 250 other protein kinases.

p70S6K, sequence (P23443 whole entry): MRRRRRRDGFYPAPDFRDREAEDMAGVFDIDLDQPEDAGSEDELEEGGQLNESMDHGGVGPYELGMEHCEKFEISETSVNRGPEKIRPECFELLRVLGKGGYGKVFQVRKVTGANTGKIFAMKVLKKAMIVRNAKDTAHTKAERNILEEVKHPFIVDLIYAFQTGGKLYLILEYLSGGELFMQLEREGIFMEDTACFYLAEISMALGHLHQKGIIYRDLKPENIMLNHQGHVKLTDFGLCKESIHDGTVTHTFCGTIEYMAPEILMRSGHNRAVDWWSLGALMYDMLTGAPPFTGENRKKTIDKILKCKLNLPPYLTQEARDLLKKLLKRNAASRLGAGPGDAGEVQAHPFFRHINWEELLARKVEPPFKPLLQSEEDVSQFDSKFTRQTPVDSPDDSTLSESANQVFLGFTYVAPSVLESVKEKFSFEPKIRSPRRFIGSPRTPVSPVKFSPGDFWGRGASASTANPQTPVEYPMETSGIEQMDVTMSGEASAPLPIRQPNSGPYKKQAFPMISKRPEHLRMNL

Take `CC(C)NC[C@@H](C(=O)N1CCN(c2ncnc3c2[C@H](C)C[C@H]3O)CC1)c1ccc(Cl)cc1` [GDC-0068]: the “single agent maximum tolerated dose” value in data set [1] is reported as 600 mg.
For the compound `NC1(c2ccc(-c3nc4ccn5c(=O)[nH]nc5c4cc3-c3ccccc3)cc2)CCC1` [MK-2206], the dose-limiting toxicities entry in data set [2] (30, 60, 75, or 90 mg on alternate days) was “skin rash and stomatitis”. The MTD in data set [2] (oral, alternate days) is reported as 60 mg.
Consider `NC1(C(=O)N[C@@H](CCO)c2ccc(Cl)cc2)CCN(c2ncnc3[nH]ccc23)CC1` [AZD5363], for which the tolerability result in data set [3] is on record as “generally well tolerated”.
Turning to `Clc1ccc(C2(c3ccc(-c4cn[nH]c4)cc3)CCNCC2)cc1` [AT7867], the IC50 on PKA was 20 nM; at p70S6K it was 85 nM.
Consider `NC1(c2ccc(-c3nc4ccn5c(=O)[nH]nc5c4cc3-c3ccccc3)cc2)CCC1` [MK-2206 2HCl], for which the “inhibitory activities against 250 other protein kinases” value in data set [4] was “no inhibitory activities”.
